Experimental findings from ChEMBL document CHEMBL1201862, “PubChem BioAssay data set” (2004) are described below.

Molecules are shown by their SMILES.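 Test compounds were applied to cells in 96-well plates for 48 hours at 5 doses. The concentration for 50% growth inhibition is given as GI50.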 The source made the active and inactive calls. Cut-off read from the data, not from the text of the source: active = GI50 up to about 1.1 µM and inactive = higher.

Some test systems named below: BT-549; CCRF-CEM; EKVX; HCC 2998; HCT-15; HL-60; MDA-MB-435; MDA-N; MOLT-4; NCI-H23; NCI-H522; OVCAR-4; SF-539; SK-MEL-28; SK-MEL-2; SK-OV-3; SR; T47D; TK-10; U-251.
Common to all, as to assay: inhibition of tumour cell growth, NCI panel, 48 h

Take `c1ccc(CN2CCN3CCN(CC2)CCN(Cc2ccccc2)CC3)cc1`: the GI50 in the assay with BT-549 was 5.16 µM (inactive); in the assay with CCRF-CEM, 6.37 µM (inactive); in the assay with EKVX, 8.47 µM (inactive); with HCC 2998, 10.9 µM (inactive); with HCT-15, 32.4 µM; in the assay with HL-60, 2.55 µM (inactive). Moreover, the GI50 in the assay on MDA-MB-435 was 3.15 µM (inactive); in the assay on MDA-N, 3.3 µM (inactive); in the assay with MOLT-4, 8.75 µM (inactive); in the assay with NCI-H23, 5.05 µM (inactive); in the assay with NCI-H522 it was 4.36 µM (inactive); with OVCAR-4, 4.04 µM (inactive). The GI50 in the assay with SF-539 is 8.26 µM (inactive); with SK-MEL-28 it was 4.67 µM (inactive); with SK-MEL-2 it was 2.82 µM (inactive); in the assay with SK-OV-3, 16.4 µM (inactive); with SR, 4.08 µM (inactive); in the assay on T47D it was 4.08 µM (inactive). Moreover, the GI50 in the assay on TK-10 is 11.4 µM (inactive); with U-251, 4.29 µM (inactive).
